Results taken from patent US9346770B2, “Compounds having activating effect on subtypes of peroxisome proliferator-activated receptors and its preparation method and uses” (ZHEJIANG HISUN PHARMACEUTICAL CO., LTD., priority 2010, dated 2016).

What was measured:
Assay type in all cases: cell-based
PPARα = PPARα (Homo sapiens (Human), UniProt Q07869); assay: Nuclear receptor reporter gene (luciferase) screening model, PPARα activation in HepG2 cells; conditions: for Experiment results (relative activation fold) PPARα: HepG2, solvent control = 1; for EC50: HepG2 reporter gene, 6 concentrations; for activation effect on PPARα receptor (in words): screening results
Description: (§1) Using a reporter gene method, a screening model for screening a nuclear receptor agonist in living cells is designed on the basis of the principal that a nuclear receptor can activate transcription of its downstream gene after being activated. A reporter gene plasmid is constructed, in which the DNA binding sequence for the nuclear receptor (NRE) is inserted at the upstream of a luciferase gene, such that the expression of the luciferase gene is regulated by the nuclear receptor. The reporter gene plasmid is transferred into a cell simultaneously with the nuclear receptor. The nuclear receptor will be activated when a nuclear receptor agonist presents in the cell culture medium. The receptor being activated can induce the expression of the luciferase gene, while the amount of generated luciferase can be determined with its luminescent substrate. In this way, the intensity of activation of the nuclear receptor by the compound can be determined by observing the luminescence intensity. For the calibration of the experimental error caused by factors such as transfection efficiency, amount of inoculated cells, toxicity of the compound, etc, a GFP plasmid is co-transfected simultaneously as the internal reference. In the analysis of the experimental results, the luminescent values tested for all wells are calibrated with GFP values. The experimental results are expressed as relative activation fold, with a value of 1 for the solvent control. The greater the fold is, the higher the activation capacity represents.
(§2) The detailed procedure is described as follows:
(§3) Hepatocarcinoma cell HepG2 (from ATCC, American Type Culture Collection) was cultured in a DMEM medium supplemented with 10% heat-inactivated fetal bovine serum (FBS, Invitogen, Grand Island, N.Y., USA) in a T-75 culture flask (Greiner, Germany) placed in a 5% CO2 incubator at 37° C. and 100% relative humidity.
(§4) On the next day, when the cells in the 96-well culture plate grew up to 50-80% confluency, cell transfection was performed. The cell co-transfection system comprised FuGene6 transfection agent (Roche Molecular Biochemicals, Indianapolis, Ind., U.S.A.) and 60 ng DNA (10 ng hRXR, 10 ng pCMV βGal, 10 ng nuclear receptor expression plasmid RXR/PPARα, δ, γ, 30 ng GFP fluorescence reporter gene plasmid, respectively).
(§5) The cell culture medium was discarded immediately after 24 hours of transfection and replaced by 200 μl fresh DMEM medium containing the test medicament (with 10% FBS treated by activated carbon). The final concentration gradients of the test medicament were 10 μM, 5 μM, 1 μM, 0.1 μM, 0.01 μM, 0.001 μM, and 0 μM. 0.05 μM 2-bromostearic acid (purchased from Sigma, USA) was used as the positive control. The final concentration of DMSO in each well was 0.1%.
(§6) After 24 h treatment with the medicament, the cells were lysed with a lysis solution (Cell Culture Lysis buffer, Promega) and centrifuged, and the supernatant was collected. The supernatant was reacted with a fluorescence assay kit (Promega) and counted by a fluorometer (Ascent Fluoroskan FL reader, Thermo Labsystems, Finland), and the relative intensity of luciferase was determined. For the assay of the β-galactosidase activity used in the experiment as the internal reference (the internal reference for calibrating the transfection efficiency), 50 μl of the supernatant was transferred into a fresh microplate, treated with a Promega kit, and the value was read with a microplate reader at a wavelength of 405 nm (Bio-tech Instruments Inc., Winooski, Vt., USA) (Sauerberg, P.; Olsen, G. S.; Jeppesen, L.; Mogensen, J. P. et al., J. Med. Chem., 2007, 50, 1495-1503).
(§7) In the present screening protocol, it was calculated according to the activation of the receptor by the sample at 6 different concentrations.
(§8) The concentration-activity profile of the effects of a compound was fitted by carrying out iterative computation according to the following formula, and corresponding EC50 was calculated: […]

PPARγ = PPARγ (Homo sapiens (Human), UniProt P37231); assay: Nuclear receptor reporter gene (luciferase) screening model, PPARγ activation in HepG2 cells; conditions: for Experiment results (relative activation fold) PPARγ: HepG2, solvent control = 1; for EC50: HepG2 reporter gene, 6 concentrations; for activation effect on PPARγ receptor (in words): screening results
Description: as §1, §2, §3, §4, §5, §6, §7, §8

PPARδ = PPARδ (Homo sapiens (Human), UniProt Q03181); assay: Nuclear receptor reporter gene (luciferase) screening model, PPARδ activation in HepG2 cells; conditions: for Experiment results (relative activation fold) PPARδ: HepG2, solvent control = 1; for EC50: HepG2 reporter gene, 6 concentrations; for activation effect on PPARδ receptor (in words): screening results
Description: as §1, §2, §3, §4, §5, §6, §7, §8

Sequence of PPARγ (P37231 whole entry, species assumed): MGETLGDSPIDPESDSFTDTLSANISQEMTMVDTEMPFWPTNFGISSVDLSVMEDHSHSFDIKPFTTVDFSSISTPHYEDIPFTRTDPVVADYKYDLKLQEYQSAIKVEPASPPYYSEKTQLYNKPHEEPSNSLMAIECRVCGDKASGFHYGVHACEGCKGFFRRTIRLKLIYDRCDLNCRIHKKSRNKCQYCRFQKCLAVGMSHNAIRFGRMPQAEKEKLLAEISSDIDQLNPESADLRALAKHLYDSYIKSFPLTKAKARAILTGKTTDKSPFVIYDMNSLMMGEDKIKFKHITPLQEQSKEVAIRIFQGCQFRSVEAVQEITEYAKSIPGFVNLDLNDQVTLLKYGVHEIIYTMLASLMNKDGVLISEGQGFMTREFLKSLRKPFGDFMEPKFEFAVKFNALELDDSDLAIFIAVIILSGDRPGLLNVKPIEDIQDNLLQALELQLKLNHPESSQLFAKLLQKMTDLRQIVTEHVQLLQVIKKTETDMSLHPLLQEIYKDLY
Sequence of PPARγ (P19793 whole entry partner, species assumed): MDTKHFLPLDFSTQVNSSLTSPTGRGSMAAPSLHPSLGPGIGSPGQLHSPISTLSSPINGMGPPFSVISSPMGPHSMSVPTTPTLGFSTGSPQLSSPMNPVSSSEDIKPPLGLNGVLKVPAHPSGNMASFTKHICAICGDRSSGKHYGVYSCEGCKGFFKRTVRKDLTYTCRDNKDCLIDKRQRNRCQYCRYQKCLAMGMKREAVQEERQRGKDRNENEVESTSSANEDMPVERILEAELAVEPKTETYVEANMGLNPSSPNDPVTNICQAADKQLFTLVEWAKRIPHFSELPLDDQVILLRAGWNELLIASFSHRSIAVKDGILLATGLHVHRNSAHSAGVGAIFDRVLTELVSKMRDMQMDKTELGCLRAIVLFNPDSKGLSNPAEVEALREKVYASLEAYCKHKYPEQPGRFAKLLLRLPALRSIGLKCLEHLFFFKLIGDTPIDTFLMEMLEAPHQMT
Sequence of PPARα (Q07869 whole entry, species assumed): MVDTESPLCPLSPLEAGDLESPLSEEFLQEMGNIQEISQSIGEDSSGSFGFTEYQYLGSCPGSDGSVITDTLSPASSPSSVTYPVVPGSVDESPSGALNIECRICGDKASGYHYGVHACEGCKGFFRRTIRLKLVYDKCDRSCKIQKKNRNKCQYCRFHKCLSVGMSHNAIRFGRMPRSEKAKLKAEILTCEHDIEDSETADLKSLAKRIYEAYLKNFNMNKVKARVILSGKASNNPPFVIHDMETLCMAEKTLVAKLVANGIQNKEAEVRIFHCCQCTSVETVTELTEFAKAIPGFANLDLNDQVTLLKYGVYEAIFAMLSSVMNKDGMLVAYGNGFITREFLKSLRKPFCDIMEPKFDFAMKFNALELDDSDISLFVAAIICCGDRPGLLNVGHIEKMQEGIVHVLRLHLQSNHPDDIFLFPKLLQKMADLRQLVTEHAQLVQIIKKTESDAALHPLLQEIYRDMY
Sequence of PPARα (P19793 whole entry partner, species assumed): as the sequence (P19793 whole entry partner, species assumed) above
Sequence of PPARδ (Q03181 whole entry, species assumed): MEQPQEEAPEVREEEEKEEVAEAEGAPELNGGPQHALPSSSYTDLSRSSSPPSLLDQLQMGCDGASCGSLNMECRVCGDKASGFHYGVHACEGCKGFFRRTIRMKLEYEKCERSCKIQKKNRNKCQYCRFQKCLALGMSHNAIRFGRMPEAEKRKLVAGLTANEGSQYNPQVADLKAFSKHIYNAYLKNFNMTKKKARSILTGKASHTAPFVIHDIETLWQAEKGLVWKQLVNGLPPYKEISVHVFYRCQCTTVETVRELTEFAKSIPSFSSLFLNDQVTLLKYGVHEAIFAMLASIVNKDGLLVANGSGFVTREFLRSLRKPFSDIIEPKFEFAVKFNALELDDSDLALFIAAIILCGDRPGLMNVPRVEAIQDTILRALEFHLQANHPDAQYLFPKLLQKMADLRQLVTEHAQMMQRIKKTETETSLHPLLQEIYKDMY
Sequence of PPARδ (P19793 whole entry partner, species assumed): as the sequence (P19793 whole entry partner, species assumed) above

SMILES | Experiment results (relative activation fold) PPARα (PPARα; 0.001 uM) [fold] | Experiment results (relative activation fold) PPARα (PPARα; 0.01 uM) [fold] | Experiment results (relative activation fold) PPARα (PPARα; 0.1 uM) [fold] | Experiment results (relative activation fold) PPARα (PPARα; 1 uM) [fold] | Experiment results (relative activation fold) PPARα (PPARα; 5 uM) [fold] | Experiment results (relative activation fold) PPARα (PPARα; 10 uM) [fold] | EC50 (PPARα) [nM] | Experiment results (relative activation fold) PPARγ (PPARγ; 0.001 uM) [fold] | Experiment results (relative activation fold) PPARγ (PPARγ; 0.01 uM) [fold] | Experiment results (relative activation fold) PPARγ (PPARγ; 0.1 uM) [fold] | Experiment results (relative activation fold) PPARγ (PPARγ; 1 uM) [fold] | Experiment results (relative activation fold) PPARγ (PPARγ; 5 uM) [fold] | Experiment results (relative activation fold) PPARγ (PPARγ; 10 uM) [fold] | EC50 (PPARγ) [nM] | Experiment results (relative activation fold) PPARδ (PPARδ; 0.001 uM) [fold] | Experiment results (relative activation fold) PPARδ (PPARδ; 0.01 uM) [fold] | Experiment results (relative activation fold) PPARδ (PPARδ; 0.1 uM) [fold] | Experiment results (relative activation fold) PPARδ (PPARδ; 1 uM) [fold] | Experiment results (relative activation fold) PPARδ (PPARδ; 5 uM) [fold] | Experiment results (relative activation fold) PPARδ (PPARδ; 10 uM) [fold] | also measured
CCc1cc(OCCc2nc(-c3ccc(F)cc3)oc2C)ccc1CCC(=O)O [Compound 1, 3-(2-ethyl-4-{2-[2-(4-fluorophenyl)-5-methyloxazol-4-yl]ethoxyl}phenyl)propionic acid] | 1.00 | 1.08 | 1.12 | 1.36 | 1.35 | 1.72 | 29 | 1.09 | 1.21 | 1.26 | 1.45 | 1.62 | 2.01 | 13 | 1.07 | 1.12 | 1.19 | 1.40 | 1.33 | 1.80 | activation effect on PPARα receptor (in words) (PPARα): better activation effects; activation effect on PPARγ receptor (in words) (PPARγ): better activation effects; EC50 (PPARδ): 29 nM; activation effect on PPARδ receptor (in words) (PPARδ): better activation effects
CCc1cc(OCCc2coc(-c3ccc(C(F)(F)F)cc3)n2)ccc1CCC(=O)O [Compound 2] | 1.01 | 1.06 | 1.16 | 1.30 | 1.38 | 1.82 | 5500 | 1.09 | 1.26 | 1.26 | 1.49 | 1.73 | 2.28 | 692 | 1.02 | 1.17 | 1.17 | 1.34 | 1.45 | 1.99 | EC50 (PPARδ): < 1 nM
CCc1cc(OCCc2nc(-c3ccc(C(F)(F)F)cc3)oc2C)ccc1CCC(=O)O [Compound 3] | 0.99 | 1.11 | 1.19 | 1.28 | 1.33 | 1.79 | 4 | 1.10 | 1.30 | 1.32 | 1.56 | 1.78 | 2.06 | 5 | 1.11 | 1.17 | 1.22 | 1.34 | 1.50 | 1.94 | activation effect on PPARα receptor (in words) (PPARα): better activation effects; activation effect on PPARγ receptor (in words) (PPARγ): better activation effects; EC50 (PPARδ): < 1 nM; activation effect on PPARδ receptor (in words) (PPARδ): better activation effects
CCc1cc(OCCc2nc(-c3ccc(C(C)(C)C)cc3)oc2C)ccc1CCC(=O)O [Compound 4] | 1.14 | 1.20 | 1.18 | 1.65 | 2.31 | 2.96 | 5500 | 2.70 | 3.78 | 3.81 | 5.17 | 4.19 | 5.88 | 89 | 1.45 | 1.53 | 2.25 | 3.51 | 4.22 | 4.60 | EC50 (PPARδ): 851 nM
